Columns and labels:
VIM-2 [1] = target: T1, VIM-2 (Escherichia coli, UniProt Q5U7L7); assay: biochemical; details: competitive model, imipenem reporter substrate; read-out: K i VIM-2
T1 construct: made in house; host or cells: E. coli

NDM-1 [2] = target: T2, NDM-1 (Klebsiella pneumoniae, UniProt C7C422); assay: Spectrophotometric direct competition assay, imipenem hydrolysis (reporter substrate); type: biochemical
T2 construct: made in house; host or cells: E. coli
Procedure: (§1) IC50 values were determined in a kinetic fluorescence-based in vitro assay as described previously. All compounds were preincubated with the recombinant protein for 30 min before addition of the fluorogenic substrate fluorocillin. , The inhibitory activity was also determined (expressed as the percentage of inhibition in the presence of 50 μM compound) using a spectrophotometric assay in which the hydrolysis of imipenem (the reporter substrate) was monitored (see Section for details).
(§2) The inhibitory activity of the compounds was determined using enzyme assays with recombinant NDM-1, VIM-1, VIM-2, IMP-1, and IMP-7. These enzymes were produced in E. coli and purified as previously described. , The fluorogenic substrate fluorocillin was synthesized according to the procedure described by Rukavishnikov et al. The assays were performed in 96-well format using black polystyrene plates (Corning, Corning, NY) at room temperature, and the measurements were carried out on the Tecan spectrophotometer Infinite F200 PRO (Tecan, Männedorf, Switzerland). The protein stock solutions were diluted in assay buffer (HEPES 50 mM, pH 7.5 containing 0.01%Triton X-100, buffer HX) to reach final concentrations of VIM-1–4 nM, IMP-7–0.1 nM; NDM-1–3 nM. Subsequently, 89 μL of the protein solution was mixed with 1 μL of the inhibitor diluted in DMSO (final DMSO concentration 1% at final assay volume of 100 μL) and incubated for 30 min. […] Negative controls were measured in the absence of enzyme (89 μL of assay buffer), whereas the positive controls were measured in the presence of enzyme and in the absence of inhibitors (1 μL of DMSO). Each measurement was performed in triplicate in three independent experiments. IC50 values were calculated using data obtained from measurements with at least eight different inhibitor concentrations, applying a sigmoidal dose–response (variable slope with four parameters) equation using GraphPad Prism 5 (GraphPad Software, La Jolla, CA) software. […] All assays were performed in at least in triplicate.

[3] = tested on: E. coli SI–N003 (bla NDM‑7 +); type: cell-based; details: compound at 32 μg/mL; median of three experiments
Procedure: (§3) In vitro antimicrobial susceptibility testing was performed according to established standards. […] The strains used in the study were described elsewhere.

[4] = tested on: E. coli SI-G001 (bla NDM‑4 +); type: cell-based; details: compound at 32 μg/mL; median of three experiments
Procedure: as §3

[5] = target: T3, human angiotensin-converting enzyme 1 (ACE-1) (Homo sapiens, UniProt P12821); assay: ACE Activity Assay Kit, fluorogenic substrate; type: biochemical; details: 50 μM inhibitor
T3 construct: purchased Sigma-Aldrich CS0002
Procedure: To assess the selectivity of the compounds, their inhibitory activity on human angiotensin-converting enzyme 1 (ACE-1) was performed using the ACE Activity Assay Kit (Sigma-Aldrich cat. No. CS0002). […] Captopril (racemic mixture, D- and L-stereoisomers) was used as control in these experiments.

[6] = tested on: S. marcescens SI-1591 (bla VIM‑2 +); assay: microbe, parasite or virus in culture; type: cell-based; details: compound at 32 μg/mL; median of three experiments
Procedure: as §3

[7] = tested on: MBL-producing clinical isolates; assay: Synergistic activity with imipenem on the whole panel of clinical isolates; type: cell-based
Procedure: (§4) In vitro antimicrobial susceptibility testing was performed according to established standards. […]. The strains used in the study were described elsewhere.

[8] = tested on: E. coli SI-M001 (bla NDM‑1 +); assay: Imipenem MIC, broth microdilution, with fixed concentration of compound; type: cell-based; details: compound at 32 μg/mL; median of three experiments
Procedure: as §4

NDM-1 [9] = target: T2, NDM-1; assay: Kinetic fluorescence-based in vitro assay with fluorocillin substrate (IC50); type: biochemical; details: 30 min preincubation
Procedure: as §1, §2

[10] = tested on: K. pneumoniae 7023 (bla VIM‑1 +); assay: Imipenem MIC, broth microdilution, with fixed concentration of compound; type: cell-based; details: compound at 32 μg/mL; median of three experiments
Procedure: as §3

[11] = tested on: K. pneumoniae VA-416/02 (bla VIM‑4 +); assay: as above; type: cell-based; details: compound at 32 μg/mL; median of three experiments
Procedure: as §3

[12] = tested on: A. baumannii AC-54/97 (bla IMP‑2 +); assay: as above; type: cell-based; details: compound at 32 μg/mL; median of three experiments
Procedure: as §3

VIM-2 [13] = target: T1, VIM-2; assay: biochemical; details: read-out: percentage of inhibition VIM-2
Procedure: as §1, §2

IMP-1 = target: T4, IMP-1 (Serratia marcescens, UniProt P52699); assay: biochemical
T4 construct: made in house; host or cells: E. coli
Procedure: as §1, §2

T2 sequence (C7C422 29-270 limits assumed): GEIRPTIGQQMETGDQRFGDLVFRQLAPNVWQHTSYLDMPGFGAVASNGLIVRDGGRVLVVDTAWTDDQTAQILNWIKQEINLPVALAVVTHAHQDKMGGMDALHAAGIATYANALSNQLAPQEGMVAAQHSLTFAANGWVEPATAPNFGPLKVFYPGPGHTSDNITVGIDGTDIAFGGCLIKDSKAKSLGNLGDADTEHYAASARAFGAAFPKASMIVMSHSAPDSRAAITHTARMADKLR
T4 sequence (P52699 19-246, looked up, species assumed): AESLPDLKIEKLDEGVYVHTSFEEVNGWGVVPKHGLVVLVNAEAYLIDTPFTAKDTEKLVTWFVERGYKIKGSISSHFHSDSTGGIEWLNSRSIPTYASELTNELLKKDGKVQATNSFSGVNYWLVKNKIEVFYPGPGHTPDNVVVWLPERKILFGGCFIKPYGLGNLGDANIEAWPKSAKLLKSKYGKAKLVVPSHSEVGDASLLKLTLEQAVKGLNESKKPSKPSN
T3 sequence (P12821 30-1306): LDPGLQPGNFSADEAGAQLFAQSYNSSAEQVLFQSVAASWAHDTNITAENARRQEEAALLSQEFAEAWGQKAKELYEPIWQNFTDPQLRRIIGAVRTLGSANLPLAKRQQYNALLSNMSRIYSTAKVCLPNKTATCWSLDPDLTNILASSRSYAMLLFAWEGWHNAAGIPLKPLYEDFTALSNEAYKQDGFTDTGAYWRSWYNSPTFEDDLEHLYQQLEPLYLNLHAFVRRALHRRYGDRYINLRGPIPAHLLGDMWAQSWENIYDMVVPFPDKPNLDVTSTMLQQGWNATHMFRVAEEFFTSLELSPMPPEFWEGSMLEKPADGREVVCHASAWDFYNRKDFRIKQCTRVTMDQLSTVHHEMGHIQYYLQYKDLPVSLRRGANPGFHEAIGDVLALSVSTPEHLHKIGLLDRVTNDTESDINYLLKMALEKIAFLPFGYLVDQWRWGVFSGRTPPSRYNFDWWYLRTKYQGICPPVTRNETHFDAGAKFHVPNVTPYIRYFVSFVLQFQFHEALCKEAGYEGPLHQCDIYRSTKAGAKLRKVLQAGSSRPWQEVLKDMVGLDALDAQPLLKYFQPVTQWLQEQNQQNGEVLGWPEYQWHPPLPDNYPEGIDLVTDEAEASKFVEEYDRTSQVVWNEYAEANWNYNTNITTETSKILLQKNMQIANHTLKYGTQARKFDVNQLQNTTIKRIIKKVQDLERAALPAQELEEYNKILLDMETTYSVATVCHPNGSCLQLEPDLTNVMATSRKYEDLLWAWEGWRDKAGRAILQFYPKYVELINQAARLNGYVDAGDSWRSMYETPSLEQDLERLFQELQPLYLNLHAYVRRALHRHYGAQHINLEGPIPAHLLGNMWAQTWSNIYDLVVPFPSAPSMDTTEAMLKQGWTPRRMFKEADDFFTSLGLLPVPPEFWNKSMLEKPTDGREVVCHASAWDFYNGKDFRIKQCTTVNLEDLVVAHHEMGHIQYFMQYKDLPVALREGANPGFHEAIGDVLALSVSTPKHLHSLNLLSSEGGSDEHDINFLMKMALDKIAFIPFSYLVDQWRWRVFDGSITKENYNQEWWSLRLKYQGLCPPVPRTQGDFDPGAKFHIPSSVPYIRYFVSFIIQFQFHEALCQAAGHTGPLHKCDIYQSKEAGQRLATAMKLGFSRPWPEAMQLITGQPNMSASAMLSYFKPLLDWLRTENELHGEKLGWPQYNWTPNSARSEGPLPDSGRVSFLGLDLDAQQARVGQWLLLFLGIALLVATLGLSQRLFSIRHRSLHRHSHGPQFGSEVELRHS

Structure (SMILES): C[C@H](CS)C(=O)N1c2ccccc2C2(CCCCC2)[C@H]1C(N)=O [6e, (S)-1′-((S)-3-Mercapto-2-methylpropanoyl)spiro[cyclohexane-1,3′-indoline]-2′-carboxamide]
- Ki (VIM-2 [1]): 100 ± 10 nM
- Ki (NDM-1 [2]; competitive model, imipenem reporter substrate, read-out: K i NDM-1): 2000 ± 100 nM
- inhibition at 50 µM (NDM-1 [2]; read-out: percentage of inhibition NDM-1): 86%
- imipenem MIC, E. coli SI–N003 (bla NDM‑7 +) [3]: 64 µg/mL
- imipenem MIC, E. coli SI-G001 (bla NDM‑4 +) [4]: 64 µg/mL
- inhibition at 50 µM [5]: < 5%
- imipenem MIC, S. marcescens SI-1591 (bla VIM‑2 +) [6]: 16 µg/mL
- potentiation of imipenem (change of imipenem MIC) on the panel, in words [7]: unable to reduce the imipenem MIC
- imipenem MIC, E. coli SI-M001 (bla NDM‑1 +) [8]: 32 µg/mL
- IC50 (NDM-1 [9]): 7.4 µM
- imipenem MIC, K. pneumoniae 7023 (bla VIM‑1 +) [10]: 64 µg/mL
- imipenem MIC, K. pneumoniae VA-416/02 (bla VIM‑4 +) [11]: 64 µg/mL
- imipenem MIC, A. baumannii AC-54/97 (bla IMP‑2 +) [12]: 128 µg/mL
- inhibition at 50 µM (VIM-2 [13]): 97%
- Ki (IMP-1; competitive model, imipenem reporter substrate, read-out: K i IMP-1): 3.8 ± 0.3 µM
- inhibition at 50 µM (IMP-1; read-out: percentage of inhibition IMP-1): 68%
